For one data set, the system named is mouse leukemia L1210. The experiment in a line: Life prolongation effect to mouse leukemia L1210. The class given is in vivo, mouse (CDF1-SLC female). Particulars: once a day for nine consecutive days, 125 or more is effective, read-out: T/C × 100 (life prolongation percentage); for response vs control in vivo at 0.39 mg/kg: 0.39 mg/kg/day; for response vs control in vivo at 0.78 mg/kg: 0.78 mg/kg/day; for response vs control in vivo at 1.56 mg/kg: 1.56 mg/kg/day; for response vs control in vivo at 3.13 mg/kg: 3.13 mg/kg/day; for response vs control in vivo at 6.25 mg/kg: 6.25 mg/kg/day; for response vs control in vivo at 12.5 mg/kg: 12.50 mg/kg/day; for response vs control in vivo at 25 mg/kg: 25.00 mg/kg/day; for response vs control in vivo at 50 mg/kg: 50.00 mg/kg/day. As for the experimental part: 3. Life prolongation effect of present compound to mouse leukemia cells L1210 and its toxicity
1×10^5 /0.2 ml/mouse of mouse leukemia cells L1210 were intraperitoneally transplanted to test groups and a control group of CDF1 -SLC female mice (each group: four mice). A compound of the present invention was dissolved in a physiological saline solution in various concentrations and each of the resulting solutions was administered to one of the test groups once a day for nine consecutive days from the next day of the transplantation, in an amount of 0.1 ml/10 g (body weight)/day. The physiological saline solution was administered to the control group.
All the mice of the test groups and the control group were observed from the next day of the L1210 transplantation to examine their days of survival, and the average days of survival (T) of each test group and the average days of survival (C) of the control group were calculated. The life prolongation percentage of the present compound was expressed as (T/C)×100.
It is believed that a (T/C)×100 of 125 or more is effective.
(§1) In Tables and 5, a control compound is included. This compound is such that in the general formula [I], X is [drawing 59] R is --CH2 OH and both of R1 and R2 are --H.

Data set [1] has as its system antibody formation (anti-SRBC plaque-forming cells). The experiment in a line: Inhibitory activity against antibody formation (anti-SRBC plaque-forming cells in spleen). Particulars: once a day for three consecutive days, minus shows an increase of antibody formation. The class given is in vivo, mouse (CDF1-SLC female). As for the experimental part:
(b) Inhibitory activity against antibody formation
Test groups and a control group of CDF1 -SLC female mice (each group: five mice) were intravenously sensitized with 1×10^8 /0.2 ml of sheep red blood cells (SRBC). A compound of the present invention was dissolved in a physiological saline solution in various concentrations. Each of the resulting solutions was administered to one of the test groups once a day for three consecutive days from the next day of the sensitization, in an amount of 0.1 ml/10 g (body weight)/day. The physiological saline solution was administered to the control group.
In the fourth day from the sensitization, all the mice were killed and the number of anti-SRBC plaque-forming cells (PFC) in the spleen cells of each mouse was measured. From this number, the PFC number per 10^6 of spleen cells was calculated. The effect of the present compound was expressed as an inhibition percentage (%) of PFC number of test group as compared with control group. [formula]
as §1

The next data set has as its system mice. Nature of the data set: Acute toxicity: administration amount causing acute death to mice. The class given is in vivo. The procedure: A compound of the present invention was dissolved in a physiological saline solution in various concentrations. Each of the resulting solutions was intraperitoneally administered to one of CDF1 -SLC female mice (one group: two to three mice) in an amount of 0.1 ml per 10 g of body weight. The highest concentration of present compound in solution was 400 mg/10 ml/kg, and starting from this solution of highest concentration, solutions of lower concentrations were prepared each time at a common ratio of 2. The administration amount of present compound with the lowest concentration solution with which at least one mouse died was taken as an administration amount of acute toxicity.
as §1

Where [2] appears, read: Administration amount 1.56 mg/kg.
Where [3] appears, read: Administration amount 6.25 mg/kg.
Setting [4] is: intraperitoneal, single, lowest amount with which at least one mouse died.

Structures can show the parent of a compound that is named as a salt. Where only a bound is given, the exact number is not on record here.

For `N=C(N)Nc1ccc(CCCC(=O)N[C@@H](CO)C(=O)NCCCCNCCCNC(=O)[C@@H](N)c2ccccc2)cc1` [Compound No. 1, 10-{N-[4-(4-GP)butanoyl]-L-Ser}-1-L-PhG-1,5,10-TAD trihydrochloride], in the data set with mouse leukemia L1210, the response vs control in vivo at 0.39 mg/kg came out at 146%, the response vs control in vivo at 0.78 mg/kg is 195%, the response vs control in vivo at 1.56 mg/kg was found to be 296% and the response vs control in vivo at 3.13 mg/kg was found to be 269%. Moreover, in the data set on mouse leukemia L1210, the response vs control in vivo at 6.25 mg/kg worked out at 315%, the response vs control in vivo at 12.5 mg/kg was 278%, the response vs control in vivo at 25 mg/kg came out at 294% and the response vs control in vivo at 50 mg/kg was 327%. Also, the “Inhibitory percentage (antibody formation, PFC number vs control group)” value (shortened to “Inhibitory percentage”) in data set [1] (setting [2]) stood at 87%. Moreover, the “Inhibitory percentage” value in data set [1] (setting [3]) is given as 97%. Also, the “Administration amount causing acute death to mice” value in the data set on mice (mouse, in vivo, ip) is recorded as 100 mg/kg.

Regarding `CC(C)C[C@H](N)C(=O)NCCCNCCCCNC(=O)[C@H](CO)NC(=O)CCCc1ccc(NC(=N)N)cc1` [Compound No. 2, 10-{N-[4-(4-GP)butanoyl)-L-Ser}-1-L-], in the data set on mouse leukemia L1210, the response vs control in vivo at 0.39 mg/kg came to 136%, the response vs control in vivo at 0.78 mg/kg worked out at 152%, the response vs control in vivo at 1.56 mg/kg came out at 244% and the response vs control in vivo at 3.13 mg/kg is 331%. Further, in the data set with mouse leukemia L1210, the response vs control in vivo at 6.25 mg/kg was 300%, the response vs control in vivo at 12.5 mg/kg turned out to be 272%, the response vs control in vivo at 25 mg/kg came out at 281% and the response vs control in vivo at 50 mg/kg came to 53%. Further, in data set [1] (setting [2]), the “Inhibitory percentage” value was found to be 60%. In data set [1] (setting [3]), the “Inhibitory percentage” value was 92%.

With `CC(C)C[C@@H](N)C(=O)NCCCNCCCCNC(=O)[C@H](CO)NC(=O)CCCc1ccc(NC(=N)N)cc1` [Compound No. 3, 10-{N-[4-(4-GP)butanoyl]-L-Ser}-1-D-Leu-1,5,10-TAD trihydrochloride], in the data set with mice (setting [4]), the “Administration amount causing acute death to mice” value is 100 mg/kg.

Take `N=C(N)Nc1ccc(CCCC(=O)N[C@@H](CO)C(=O)NCCCCNCCCNC(=O)[C@@H](N)Cc2ccccc2)cc1` [Compound No. 5, 10-{N-[4-(4-GP)butanoyl]-L-Ser}-1-L-Phe-1,5,10-TAD trihydrochloride]: in the data set on mouse leukemia L1210, the response vs control in vivo at 0.39 mg/kg stood at 123%, the response vs control in vivo at 0.78 mg/kg stood at 133%, the response vs control in vivo at 1.56 mg/kg was 146% and the response vs control in vivo at 3.13 mg/kg stood at 265%. In the data set on mouse leukemia L1210, the response vs control in vivo at 6.25 mg/kg worked out at 290%, the response vs control in vivo at 12.5 mg/kg came out at 290%, the response vs control in vivo at 25 mg/kg is 284% and the response vs control in vivo at 50 mg/kg was 253%. In the data set with mice (mouse, in vivo, ip), the “Administration amount causing acute death to mice” value worked out at 100 mg/kg.

As to `N=C(N)Nc1ccc(CCCC(=O)N[C@@H](CO)C(=O)NCCCCNCCCNC(=O)[C@@H](N)Cc2ccc(O)cc2)cc1` [Compound No. 6, 10-{N-[4-(4-GP)butanoyl]-L-Ser}-1-L-Tyr-1,5,10-TAD trihydrochloride], in the data set with mouse leukemia L1210, the response vs control in vivo at 0.39 mg/kg was determined as 125%, the response vs control in vivo at 0.78 mg/kg came out at 158%, the response vs control in vivo at 1.56 mg/kg stood at 201% and the response vs control in vivo at 3.13 mg/kg turned out to be 267%. For the same compound, in the data set with mouse leukemia L1210, the response vs control in vivo at 6.25 mg/kg turned out to be 250%, the response vs control in vivo at 12.5 mg/kg stood at 250%, the response vs control in vivo at 25 mg/kg was determined as 270% and the response vs control in vivo at 50 mg/kg was found to be 162%. Further, in the data set on mice (mouse, in vivo, ip), the “Administration amount causing acute death to mice” value came out at 100 mg/kg.

With `N=C(N)Nc1ccc(CCCC(=O)N[C@@H](CO)C(=O)NCCCCNCCCNC(=O)[C@@H](N)CC(=O)O)cc1` [Compound No. 7, 10-{N-[4-(4-GP)butanoyl]-L-Ser}-1-L-Asp-1,5,10-TAD trihydrochloride], in the data set on mouse leukemia L1210, the response vs control in vivo at 0.39 mg/kg came to 96%, the response vs control in vivo at 0.78 mg/kg was 86%, the response vs control in vivo at 1.56 mg/kg is 99% and the response vs control in vivo at 3.13 mg/kg worked out at 152%. Besides, in the data set on mouse leukemia L1210, the response vs control in vivo at 6.25 mg/kg was found to be 216%, the response vs control in vivo at 12.5 mg/kg came out at 265%, the response vs control in vivo at 25 mg/kg stood at 284% and the response vs control in vivo at 50 mg/kg was found to be 284%. For the same compound, in the data set on mice (mouse, in vivo, ip), the “Administration amount causing acute death to mice” value is 100 mg/kg.

On to `C[C@H](N)C(=O)NCCCNCCCCNC(=O)[C@H](CO)NC(=O)CCCc1ccc(NC(=N)N)cc1` [Compound No. 8, 10-{N-[4-(4-GP)butanoyl]-L-Ser}-1-L-Ala-1,5,10-TAD trihydrochloride], for which the response vs control in vivo at 0.2 mg/kg with mouse leukemia L1210 (0.20 mg/kg/day) amounted to 109%. In the data set with mouse leukemia L1210, the response vs control in vivo at 0.39 mg/kg came out at 102%, the response vs control in vivo at 0.78 mg/kg was found to be 130%, the response vs control in vivo at 1.56 mg/kg came to 164% and the response vs control in vivo at 3.13 mg/kg came out at 312%. In addition, in the data set on mouse leukemia L1210, the response vs control in vivo at 6.25 mg/kg turned out to be 272%, the response vs control in vivo at 12.5 mg/kg came out at 290% and the response vs control in vivo at 25 mg/kg turned out to be 362%.

Consider `N=C(N)Nc1ccc(CCCC(=O)N[C@@H](CO)C(=O)NCCCCNCCCNC(=O)[C@@H](N)CO)cc1` [Compound No. 9, 10-{N-[4-(4-GP)butanoyl]-L-Ser}-1-L-Ser-1,5,10-TAD trihydrochloride], for which, in the data set on mouse leukemia L1210, the response vs control in vivo at 0.78 mg/kg was determined as 118%, the response vs control in vivo at 1.56 mg/kg stood at 125%, the response vs control in vivo at 3.13 mg/kg stood at 155% and the response vs control in vivo at 6.25 mg/kg is 191%. Besides, in the data set with mouse leukemia L1210, the response vs control in vivo at 12.5 mg/kg was determined as 276%, the response vs control in vivo at 25 mg/kg was 241% and the response vs control in vivo at 50 mg/kg is 250%. Moreover, in the data set with mouse leukemia L1210 (100.00 mg/kg/day), the response vs control in vivo at 100 mg/kg worked out at 103%. Besides, the “Administration amount causing acute death to mice” value in the data set with mice (mouse, in vivo, ip) is listed as more than 100 mg/kg.

In the case of `N=C(N)Nc1ccc(CCCC(=O)N[C@@H](CO)C(=O)NCCCCNCCCNC(=O)[C@@H]2CCCN2)cc1` [Compound No. 10, 10-{N-[4-(4-GP)butanoyl-L-Ser}-1-L-Pro-1,5,10-TAD trihydrochloride], in the data set on mice (setting [4]), the “Administration amount causing acute death to mice” value is on record as 100 mg/kg.

Consider `N=C(N)Nc1ccc(CCCC(=O)N[C@@H](CO)C(=O)NCCCCNCCCNC(=O)[C@@H](O)[C@H](N)Cc2ccccc2)cc1` [Compound No. 12, 10-{N-[4-(4-GP)butanoyl]-L-Ser}-1-[(2S, 3R)-AHPA]-1,5,10-TAD trihydrochloride], for which, in the data set on mice (setting [4]), the “Administration amount causing acute death to mice” value was 100 mg/kg.

Turning to `N=C(N)Nc1ccc(CCCC(=O)N[C@@H](CO)C(=O)NCCCCN(CCCNC(=O)[C@@H](N)c2ccccc2)C(=O)[C@@H](N)c2ccccc2)cc1` [Compound No. 14, 10-{N-[4-(4-GP)butanoyl]-L-Ser}-1,5-di-L-PhG-1,5,10-TAD trihydrochloride], the “Inhibitory percentage” value was -50% in data set [1] (setting [2]) and -75% in data set [1] (setting [3]). The “Administration amount causing acute death to mice” value in the data set on mice (mouse, in vivo, ip) worked out at 200 mg/kg.

The record behind these values is patent US4956504A, “Novel spergualin-related compounds and process for producing the same” (Zaidan Hojin Biseibutsu Kagaku Kenkyu Kai, priority 1986, dated 1990).
